Legend:
[1] = refractive index (Na D-line) (dimensionless); wn = mass fraction of the nth substance listed; conditions: 101 kPa, Liquid, Standard Abbe refractometry
[2] = wn = mass fraction of the nth substance listed; conditions: for surface tension liquid-gas: Maximal bubble pressure; for mass density: 101 kPa, Liquid, Buoyancy - hydrostatic balance

CC(O)C(=O)[O-].CCn1cc[n+](C)c1 [1-ethyl-3-methylimidazolium lactate] + O
Conditions | mass density, [2] [kg/m3] | refractive index, [1] | surface tension liquid-gas, [2] [mN/m]
288.15 K, w2 = 0.0082 | 1197.3 | 1.5019 | 50.1
288.15 K, w2 = 0.0104 | 1198.4 | 1.5017 | 50.3
288.15 K, w2 = 0.0121 | 1199.4 | 1.5016 | 50.4
288.15 K, w2 = 0.0158 | 1201.3 | 1.5013 | 50.7
288.15 K, w2 = 0.0205 | 1203.8 | 1.5009 | 51
293.15 K, w2 = 0.0082 | 1194.1 | 1.5006 | 49.8
293.15 K, w2 = 0.0104 | 1195.2 | 1.5004 | 50
293.15 K, w2 = 0.0121 | 1196.1 | 1.5002 | 50.1
293.15 K, w2 = 0.0158 | 1198.1 | 1.4999 | 50.4
293.15 K, w2 = 0.0205 | 1200.5 | 1.4994 | 50.7
303.15 K, w2 = 0.0082 | 1187.6 | 1.498 | 49.1
303.15 K, w2 = 0.0104 | 1188.8 | 1.4978 | 49.3
303.15 K, w2 = 0.0121 | 1189.7 | 1.4977 | 49.4
303.15 K, w2 = 0.0158 | 1191.5 | 1.4974 | 49.7
303.15 K, w2 = 0.0205 | 1194 | 1.497 | 50.1
308.15 K, w2 = 0.0082 | 1184.3 | 1.4969 | 48.7
308.15 K, w2 = 0.0104 | 1185.5 | 1.4967 | 48.9
308.15 K, w2 = 0.0121 | 1186.4 | 1.4965 | 49
308.15 K, w2 = 0.0158 | 1188.3 | 1.4962 | 49.3
308.15 K, w2 = 0.0205 | 1190.7 | 1.4957 | 49.7
313.15 K, w2 = 0.0082 | 1180.9 | 1.4955 | 48.4
313.15 K, w2 = 0.0104 | 1182 | 1.4953 | 48.6
313.15 K, w2 = 0.0121 | 1182.9 | 1.4952 | 48.7
313.15 K, w2 = 0.0158 | 1184.9 | 1.4949 | 49
313.15 K, w2 = 0.0205 | 1187.5 | 1.4946 | 49.4
318.15 K, w2 = 0.0082 | 1177.6 | 1.4943 | 48.1
318.15 K, w2 = 0.0104 | 1178.8 | 1.4941 | 48.3
318.15 K, w2 = 0.0121 | 1179.7 | 1.494 | 48.4
318.15 K, w2 = 0.0158 | 1181.5 | 1.4937 | 48.7
318.15 K, w2 = 0.0205 | 1184 | 1.4933 | 49.1
323.15 K, w2 = 0.0082 | 1174.5 | 1.4931 | 47.7
323.15 K, w2 = 0.0104 | 1175.6 | 1.493 | 47.9
323.15 K, w2 = 0.0121 | 1176.4 | 1.4929 | 48
323.15 K, w2 = 0.0158 | 1178.2 | 1.4927 | 48.3
323.15 K, w2 = 0.0205 | 1180.6 | 1.4924 | 48.7
328.15 K, w2 = 0.0082 | 1171.3 | 1.4919 | 47.3
328.15 K, w2 = 0.0104 | 1172.5 | 1.4917 | 47.5
328.15 K, w2 = 0.0121 | 1173.4 | 1.4915 | 47.6
328.15 K, w2 = 0.0158 | 1175.3 | 1.4912 | 47.9
328.15 K, w2 = 0.0205 | 1177.7 | 1.4908 | 48.3
333.15 K, w2 = 0.0082 | 1168 | 1.4906 | 47
333.15 K, w2 = 0.0104 | 1169.1 | 1.4904 | 47.2
333.15 K, w2 = 0.0121 | 1170 | 1.4903 | 47.3
333.15 K, w2 = 0.0158 | 1172 | 1.49 | 47.6
333.15 K, w2 = 0.0205 | 1174.5 | 1.4896 | 48

CC(O)C(=O)[O-].CCCCCn1cc[n+](C)c1 [1-pentyl-3-methylimidazolium lactate] + O
Conditions | mass density, [2] [kg/m3] | refractive index, [1] | surface tension liquid-gas, [2] [mN/m]
288.15 K, w2 = 0.0081 | – | 1.4933 | –
288.15 K, w2 = 0.0086 | 1116.6 | – | 43.7
288.15 K, w2 = 0.0102 | – | 1.4931 | –
288.15 K, w2 = 0.0106 | 1117.4 | – | 43.8
288.15 K, w2 = 0.0129 | 1118.6 | 1.4929 | 44
288.15 K, w2 = 0.0153 | – | 1.4927 | –
288.15 K, w2 = 0.0163 | 1120.3 | – | 44.3
288.15 K, w2 = 0.0199 | – | 1.4923 | –
288.15 K, w2 = 0.021 | 1122.4 | – | 44.6
293.15 K, w2 = 0.0081 | – | 1.492 | –
293.15 K, w2 = 0.0086 | 1113.1 | – | 43.3
293.15 K, w2 = 0.0102 | – | 1.4918 | –
293.15 K, w2 = 0.0106 | 1113.9 | – | 43.4
293.15 K, w2 = 0.0129 | 1115.2 | 1.4916 | 43.6
293.15 K, w2 = 0.0153 | – | 1.4913 | –
293.15 K, w2 = 0.0163 | 1116.8 | – | 43.9
293.15 K, w2 = 0.0199 | – | 1.4909 | –
293.15 K, w2 = 0.021 | 1119 | – | 44.2
303.15 K, w2 = 0.0081 | – | 1.4894 | –
303.15 K, w2 = 0.0086 | 1106.8 | – | 42.6
303.15 K, w2 = 0.0102 | – | 1.4892 | –
303.15 K, w2 = 0.0106 | 1107.6 | – | 42.7
303.15 K, w2 = 0.0129 | 1108.8 | 1.489 | 42.9
303.15 K, w2 = 0.0153 | – | 1.4888 | –
303.15 K, w2 = 0.0163 | 1110.5 | – | 43.2
303.15 K, w2 = 0.0199 | – | 1.4884 | –
303.15 K, w2 = 0.021 | 1112.7 | – | 43.5
308.15 K, w2 = 0.0081 | – | 1.4883 | –
308.15 K, w2 = 0.0086 | 1103.6 | – | 42.2
308.15 K, w2 = 0.0102 | – | 1.4881 | –
308.15 K, w2 = 0.0106 | 1104.3 | – | 42.3
308.15 K, w2 = 0.0129 | 1105.6 | 1.4879 | 42.5
308.15 K, w2 = 0.0153 | – | 1.4876 | –
308.15 K, w2 = 0.0163 | 1107.3 | – | 42.8
308.15 K, w2 = 0.0199 | – | 1.4872 | –
308.15 K, w2 = 0.021 | 1109.5 | – | 43.2
313.15 K, w2 = 0.0081 | – | 1.4869 | –
313.15 K, w2 = 0.0086 | 1099.9 | – | 41.9
313.15 K, w2 = 0.0102 | – | 1.4867 | –
313.15 K, w2 = 0.0106 | 1100.7 | – | 42
313.15 K, w2 = 0.0129 | 1102.1 | 1.4865 | 42.2
313.15 K, w2 = 0.0153 | – | 1.4863 | –
313.15 K, w2 = 0.0163 | 1104 | – | 42.5
313.15 K, w2 = 0.0199 | – | 1.486 | –
313.15 K, w2 = 0.021 | 1106.4 | – | 42.9
318.15 K, w2 = 0.0081 | – | 1.4857 | –
318.15 K, w2 = 0.0086 | 1097.1 | – | 41.6
318.15 K, w2 = 0.0102 | – | 1.4855 | –
318.15 K, w2 = 0.0106 | 1097.8 | – | 41.8
318.15 K, w2 = 0.0129 | 1099.1 | 1.4853 | 41.9
318.15 K, w2 = 0.0153 | – | 1.4851 | –
318.15 K, w2 = 0.0163 | 1100.8 | – | 42.2
318.15 K, w2 = 0.0199 | – | 1.4847 | –
318.15 K, w2 = 0.021 | 1103 | – | 42.6
323.15 K, w2 = 0.0081 | – | 1.4845 | –
323.15 K, w2 = 0.0086 | 1093.9 | – | 41.2
323.15 K, w2 = 0.0102 | – | 1.4844 | –
323.15 K, w2 = 0.0106 | 1094.6 | – | 41.4
323.15 K, w2 = 0.0129 | 1095.8 | 1.4842 | 41.5
323.15 K, w2 = 0.0153 | – | 1.4841 | –
323.15 K, w2 = 0.0163 | 1097.5 | – | 41.8
323.15 K, w2 = 0.0199 | – | 1.4838 | –
323.15 K, w2 = 0.021 | 1099.6 | – | 42.2
328.15 K, w2 = 0.0081 | – | 1.4833 | –
328.15 K, w2 = 0.0086 | 1090.5 | – | 40.8
328.15 K, w2 = 0.0102 | – | 1.4831 | –
328.15 K, w2 = 0.0106 | 1091.2 | – | 41
328.15 K, w2 = 0.0129 | 1092.5 | 1.4829 | 41.1
328.15 K, w2 = 0.0153 | – | 1.4826 | –
328.15 K, w2 = 0.0163 | 1094.1 | – | 41.4
328.15 K, w2 = 0.0199 | – | 1.4822 | –
328.15 K, w2 = 0.021 | 1096.4 | – | 41.8
333.15 K, w2 = 0.0081 | – | 1.482 | –
333.15 K, w2 = 0.0086 | 1087.4 | – | 40.5
333.15 K, w2 = 0.0102 | – | 1.4818 | –
333.15 K, w2 = 0.0106 | 1088.1 | – | 40.7
333.15 K, w2 = 0.0129 | 1089.3 | 1.4816 | 40.8
333.15 K, w2 = 0.0153 | – | 1.4814 | –
333.15 K, w2 = 0.0163 | 1091 | – | 41.1
333.15 K, w2 = 0.0199 | – | 1.481 | –
333.15 K, w2 = 0.021 | 1093.2 | – | 41.5

From the NIST ThermoML archive (doi:10.1016/j.jct.2013.07.008)
